Laboratory results as given in patent US20240150368A1, “ULK INHIBITORS AND METHODS OF USE THEREOF” (Deciphera Pharmaceuticals, LLC, priority 2022, published 2024).

Key:
[1] = system: ULK kinase substrate ATG13 (pS318-ATG13) in A549 (KRAS mutant) cells; experiment: pATG13 levels of mutant KRas A549 cells after treatment with ULK inhibitors in combination with trametinib (ELISA); type: cell-based, human
How it was run: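 A549 cells grown overnight were treated with a test-compound dose response plus trametinib at 250 nM final (or DMSO) overnight at 37° C. Lysates were assayed by total-ATG13 capture and biotinylated pS318-ATG13 detection ELISA (450 nm minus 540 nm background); % phosphorylation versus controls gave IC50 values.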

[2] = biological target: T1, LRRK2 kinase (Homo sapiens, UniProt Q5S007); experiment: Biochemical assay for LRRK2 (coupled pyruvate kinase/lactate dehydrogenase assay); conditions: 26.4 nM LRRK2, 1 mM ATP; read-out: LRRK2 (inhibition of LRRK2 kinase activity, IC50)
T1 construct: (residues 970-2528; ID NO; 3); purchased Thermo Fisher
Experimental: Biochemical Assay for LRRK2 (SEQ. ID NO. 3)
Activity of LRRK2 kinase was determined spectroscopically using a coupled pyruvate kinase/lactate dehydrogenase assay that continuously monitors the ATP hydrolysis-dependent oxidation of NADH (e.g., Schindler et al. Science (2000) 289: 1938-1942). Assays were conducted in 384-well plates (100 μL final volume) using 26.4 nM LRRK2 (Thermo Fisher), 0.1 mM peptide substrate (RLGRDKYKTLRQIRQ), 1.5 units pyruvate kinase, 2.1 units lactate dehydrogenase, 1 mM phosphoenol pyruvate, 0.28 mM NADH and 1 mM ATP in assay buffer (100 mM Tris, pH 7.5, 15 mM MgCl2, 0.5 mM DTT, 0.004% (w/v) BSA, and 0.004% Triton X-100). Inhibition of LRRK2 was measured by adding serial diluted test compound (final assay concentration of 1% DMSO). A decrease in absorption at 340 nm was monitored continuously for 6 h at 30° C. on a multi-mode microplate reader (BioTek). The reaction rate was calculated using the 2-3 h time frame. The reaction rate at each concentration of compound was converted to percent inhibition using controls (i.e., reaction with no test compound and reaction with a known inhibitor) and IC50 values were calculated using software routines in Prism (GraphPad software).

T1 sequence (Q5S007 with tags, fused parts or gaps): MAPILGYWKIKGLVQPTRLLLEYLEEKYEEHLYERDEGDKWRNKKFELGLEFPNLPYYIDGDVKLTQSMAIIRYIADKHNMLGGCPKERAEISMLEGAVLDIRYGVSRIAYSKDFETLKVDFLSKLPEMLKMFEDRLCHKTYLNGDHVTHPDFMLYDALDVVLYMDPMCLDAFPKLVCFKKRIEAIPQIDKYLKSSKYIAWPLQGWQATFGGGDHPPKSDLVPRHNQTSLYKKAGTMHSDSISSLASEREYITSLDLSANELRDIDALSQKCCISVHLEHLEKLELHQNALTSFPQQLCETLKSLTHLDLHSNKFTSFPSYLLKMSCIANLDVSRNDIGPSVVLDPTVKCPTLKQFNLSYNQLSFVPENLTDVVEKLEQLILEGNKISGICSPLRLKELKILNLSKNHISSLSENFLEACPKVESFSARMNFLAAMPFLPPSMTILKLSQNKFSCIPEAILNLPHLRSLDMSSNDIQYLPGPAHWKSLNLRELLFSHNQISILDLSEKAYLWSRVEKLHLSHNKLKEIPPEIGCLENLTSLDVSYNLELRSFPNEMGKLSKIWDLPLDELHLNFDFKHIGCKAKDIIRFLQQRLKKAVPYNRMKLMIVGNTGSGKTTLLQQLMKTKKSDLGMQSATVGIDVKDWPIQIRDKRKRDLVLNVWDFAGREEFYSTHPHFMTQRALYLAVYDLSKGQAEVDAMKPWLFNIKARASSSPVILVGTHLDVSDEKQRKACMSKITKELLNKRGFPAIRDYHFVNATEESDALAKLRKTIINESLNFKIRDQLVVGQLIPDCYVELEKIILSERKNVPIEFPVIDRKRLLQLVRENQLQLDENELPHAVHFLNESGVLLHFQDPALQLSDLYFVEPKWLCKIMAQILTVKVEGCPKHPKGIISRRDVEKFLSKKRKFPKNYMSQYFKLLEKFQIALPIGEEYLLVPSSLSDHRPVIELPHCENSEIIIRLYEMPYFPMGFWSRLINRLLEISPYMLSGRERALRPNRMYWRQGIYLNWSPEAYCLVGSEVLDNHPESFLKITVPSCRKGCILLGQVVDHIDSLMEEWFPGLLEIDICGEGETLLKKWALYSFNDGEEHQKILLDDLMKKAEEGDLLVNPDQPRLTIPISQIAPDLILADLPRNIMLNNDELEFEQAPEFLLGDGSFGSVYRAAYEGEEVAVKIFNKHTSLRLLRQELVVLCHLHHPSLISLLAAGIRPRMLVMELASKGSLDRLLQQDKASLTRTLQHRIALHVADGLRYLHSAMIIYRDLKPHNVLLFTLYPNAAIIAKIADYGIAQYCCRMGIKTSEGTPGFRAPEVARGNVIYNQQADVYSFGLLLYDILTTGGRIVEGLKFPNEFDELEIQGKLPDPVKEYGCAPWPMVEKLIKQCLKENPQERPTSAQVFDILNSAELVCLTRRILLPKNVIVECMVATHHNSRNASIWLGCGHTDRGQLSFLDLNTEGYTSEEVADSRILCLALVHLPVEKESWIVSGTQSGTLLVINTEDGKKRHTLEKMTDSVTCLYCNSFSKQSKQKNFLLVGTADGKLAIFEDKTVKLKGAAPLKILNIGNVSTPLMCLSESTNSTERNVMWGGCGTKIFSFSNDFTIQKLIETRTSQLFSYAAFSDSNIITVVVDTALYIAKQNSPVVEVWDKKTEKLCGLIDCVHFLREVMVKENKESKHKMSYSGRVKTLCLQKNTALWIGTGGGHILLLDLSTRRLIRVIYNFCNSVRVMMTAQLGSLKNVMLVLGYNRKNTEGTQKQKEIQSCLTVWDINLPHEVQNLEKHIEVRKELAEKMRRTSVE

Row | IC50 [1] | IC50 [2] | Structure (SMILES)
1 | ≤ 100 nM | ≤ 100 nM | CC/C(Nc1cnn(C(C)C)c1)=C1/C(=O)Nc2ccc(C(=O)NC[C@H]3CCCO3)cc21 [Example 95]
2 | ≤ 100 nM | ≤ 100 nM | CC/C(Nc1cnn(CC)c1)=C1/C(=O)Nc2ccc(C(=O)NCC(F)(F)F)cc21 [Example 107]
3 | ≤ 100 nM | ≤ 100 nM | CC/C(Nc1cnn(C(C)C)c1)=C1/C(=O)Nc2ccc(C(=O)NCC(F)F)cc21 [Example 112]
4 | 100 to 300 nM | ≤ 100 nM | CC/C(Nc1cnn(C(F)F)c1)=C1/C(=O)Nc2ccc(C(=O)NCC(F)(F)F)cc21 [Example 114]
5 | ≤ 100 nM | ≤ 100 nM | CC/C(Nc1cnn(C2CC2)c1)=C1/C(=O)Nc2ccc(C(=O)NCC(F)(F)F)cc21 [Example 116]
6 | ≤ 100 nM | ≤ 100 nM | CC/C(Nc1cnn(C(C)C)c1)=C1/C(=O)Nc2ccc(C(=O)N[C@H](C)C(F)(F)F)cc21 [Example 119]
7 | 300 to 600 nM | ≤ 100 nM | CC/C(Nc1cnn(C(C)C)c1)=C1/C(=O)Nc2ccc(C(=O)N(C)CC(F)(F)F)cc21 [Example 125]
8 | ≤ 100 nM | ≤ 100 nM | CC/C(Nc1cnn(C(C)C)c1)=C1/C(=O)Nc2ccc(C(=O)NCC(C)C)cc21 [Example 130]
9 | ≤ 100 nM | 100 to 300 nM | CC/C(Nc1cnn(C(C)C)c1)=C1/C(=O)Nc2ccc(C(=O)NCC(C)(C)F)cc21 [Example 135]
10 | 100 to 300 nM | 300 to 600 nM | CC/C(Nc1cnn(C(C)C)c1)=C1/C(=O)Nc2ccc(C(=O)NCCOC(F)(F)F)cc21 [Example 136]
11 | 300 to 600 nM | 100 to 300 nM | CC/C(Nc1cnn(C(C)C)c1)=C1/C(=O)Nc2ccc(C(=O)NCC3CCC(C)(C)O3)cc21 (stereo not drawn) [Example 137]
12 | ≤ 100 nM | ≤ 100 nM | CC/C(Nc1cnn(C(C)C)c1)=C1/C(=O)Nc2ccc(C(=O)NCC3(C(F)(F)F)CC3)cc21 [Example 140]
13 | ≤ 100 nM | ≤ 100 nM | CC/C(Nc1cnn(C(C)C)c1)=C1/C(=O)Nc2ccc(C(=O)NCC3(F)CC3)cc21 [Example 152]
14 | ≤ 100 nM | ≤ 100 nM | CC/C(Nc1cnn(C)c1)=C1/C(=O)Nc2ccc(C(=O)NCC3(F)CC3)cc21 [Example 154]

Continued, molecule first:

Row | Structure (SMILES) | IC50 [1] | IC50 [2]
15 | CC/C(Nc1cnn(C2CCN(C3CCOCC3)CC2)c1)=C1/C(=O)Nc2ccc(C(=O)NCC(C)C)cc21 [Example 37] | ≤ 100 nM | 100 to 300 nM
16 | CC/C(Nc1ccc(N2CCN(C(C)C)CC2)cc1)=C1/C(=O)Nc2ccc(C(=O)NC[C@H]3CCCO3)cc21 [Example 47] | ≤ 100 nM | 100 to 300 nM
17 | CC/C(Nc1cnn(C2CCNCC2)c1)=C1/C(=O)Nc2ccc(C(=O)NC[C@H]3CCCO3)cc21 [Example 52] | > 600 nM | 100 to 300 nM
18 | CC/C(Nc1cnn(C2CN(C)C2)c1)=C1/C(=O)Nc2ccc(C(=O)NC[C@H]3CCCO3)cc21 [Example 54] | 300 to 600 nM | 300 to 600 nM
19 | CC/C(Nc1cnn(C)c1)=C1/C(=O)Nc2ccc(C(=O)NC[C@H]3CCCO3)cc21 [Example 55] | 100 to 300 nM | 100 to 300 nM
20 | CC/C(Nc1cnn(C2CCN(C(C)C)CC2)c1)=C1/C(=O)Nc2ccc(C(=O)NC[C@@H](C)OC)cc21 [Example 58] | 100 to 300 nM | 300 to 600 nM
21 | CC/C(Nc1ccc(N2CC3(CN(C)C3)C2)cc1)=C1/C(=O)Nc2ccc(C(=O)NCC(F)(F)F)cc21 [Example 62] | 100 to 300 nM | ≤ 100 nM
22 | CC/C(Nc1ccc(N2CCN(C(C)C)CC2)cn1)=C1/C(=O)Nc2ccc(C(=O)NC[C@H]3CCCO3)cc21 [Example 93] | ≤ 100 nM | ≤ 100 nM
23 | CC/C(Nc1cnc(N2CCN(C(C)C)CC2)cn1)=C1/C(=O)Nc2ccc(C(=O)NCC(F)(F)F)cc21 [Example 94] | 100 to 300 nM | 100 to 300 nM
24 | CC/C(Nc1cnn(C2CCN(C(C)C)CC2)c1)=C1/C(=O)Nc2ccc(C(=O)NCCOC)cc21 [Example 98] | 300 to 600 nM | 100 to 300 nM
25 | CC/C(Nc1cnn([C@H]2CCOC2)c1)=C1/C(=O)Nc2ccc(C(=O)NCC(F)(F)F)cc21 [Example 104] | ≤ 100 nM | ≤ 100 nM
26 | CC/C(Nc1cn[nH]c1)=C1/C(=O)Nc2ccc(C(=O)NCC(F)(F)F)cc21 [Example 108] | > 600 nM | 100 to 300 nM
27 | CC/C(Nc1cnn(C(F)(F)F)c1)=C1/C(=O)Nc2ccc(C(=O)NCC(F)(F)F)cc21 [Example 113] | 100 to 300 nM | 100 to 300 nM
28 | CC/C(Nc1cnn(C2CCC2)c1)=C1/C(=O)Nc2ccc(C(=O)NCC(F)(F)F)cc21 [Example 117] | ≤ 100 nM | ≤ 100 nM
29 | CC/C(Nc1cnn(C2COC2)c1)=C1/C(=O)Nc2ccc(C(=O)NCC(F)(F)F)cc21 [Example 118] | 300 to 600 nM | ≤ 100 nM
30 | CC/C(Nc1cnn(C2CCN(C(C)C)CC2)c1)=C1/C(=O)Nc2ccc(C(C)=O)cc21 [Example 123] | 100 to 300 nM | 100 to 300 nM
31 | CC/C(Nc1ccc2nn(C(C)C)cc2c1)=C1/C(=O)Nc2ccc(C(=O)NCC(F)(F)F)cc21 [Example 142] | 300 to 600 nM | ≤ 100 nM
32 | CC/C(Nc1cnn(CC(F)F)c1)=C1/C(=O)Nc2ccc(C(=O)NCC(C)(C)F)cc21 [Example 161] | ≤ 100 nM | 100 to 300 nM
33 | CC/C(Nc1cnn(C2CCOCC2)c1)=C1/C(=O)Nc2ccc(C(=O)NCC(C)(C)F)cc21 [Example 173] | ≤ 100 nM | ≤ 100 nM
